Reference: paper PMC11611271, “Rapid prediction of key residues for foldability by machine learning model enables the design of highly functional libraries with hyperstable constrained peptide scaffolds” (PLOS Computational Biology, 2024)
Where a SMILES comes first, the peptide text is derived from it. Bridges are numbered along the chain shown (N, C = ends).

Key:
Type in all cases: binding
CD28 = experiment: phage spot ELISA on CD28; settings: for S/N: phage spot ELISA signal/noise; for ELISA: phage spot ELISA signal
Source text: (§1) To determine the performance of the libraries for ligand discovery we chose a panel of eight protein targets, which have no structural homology and a wide mass range (Fig 7C). We screened these eight targets with solution panning strategy and two additional plate panning for CD8α/β and CD28, thus ten panning campaigns in total. We consider clones showing spot phage ELISA signal > 0.3 and signal/noise ratio > 2 as positive hits. At least one binding hit was discovered for nine out of the ten panning campaigns, surpassing the success rate of the best DCP scaffolds reported previously. We also obtained the NGS data for these screening and the ranking of clones for their enrichment along the rounds of screening was analyzed and considered the top-ranking clones as potential hits. Based on their sequence diversity we selected 16 potential hits spanning five protein targets for peptide synthesis in their linear form. Seven of these are hits with positive phage ELISA signal and nine were selected based on NGS ranking without spot ELISA available. Subsequently, we conducted in vitro folding experiments on these peptides in various buffers. We observed a strong propensity for spontaneous folding regardless of the buffer condition. All HCP hits tested successfully folded into three-disulfide-containing product within two days in a universal buffer system (PBS, pH 7.4, 50% DMSO) without the need for a redox pair, as shown in Fig 8A. The binding of these folded peptides to their respective target proteins was confirmed using SPR (Table 4 and S1 Data) and binding kinetics are exemplified by the high-affinity peptide 5ji4-CRD7-2 (see Fig 8B). Among seven selected ELISA-positive hits, all of them were successfully synthesized and in vitro folded with three disulfide bonds and five were proven to be validated binders by SPR (Table 4). Nine peptides selected from the NGS ranking were synthesized and folded with the expected number of disulfide bonds and five of them bound to their target with affinities in the μM range as determined by SPR (Table 4). In general, binding affinities for these SPR-validated initial hits are weak, with Kd values in the micromolar range and fast on- and off-rates. There are two exceptions with binding affinities in the nanomolar range.
(§2) The 5ji4 libraries were constructed following the Kunkel mutagenesis method and the solution panning protocol was followed as previously described. After four to five rounds of binding selection, while eluted pool was subjected to NGS analysis, individual phage clones were also picked and analyzed with phage spot ELISA. Positive clones were subjected to SANGER sequencing.

CRD7 = experiment: phage spot ELISA on CRD7; settings: for S/N: phage spot ELISA signal/noise; for S/N / ELISA: S3 Table sheet CRD7; for ELISA: phage spot ELISA signal
Source text: as §1, §2

VEGF = experiment: phage spot ELISA on VEGF; settings: S3 Table sheet VEGF; for S/N: phage spot ELISA signal/noise; for ELISA: phage spot ELISA signal
Source text: as §1, §2

[1] = S3 Table sheet CD28-1 (panning campaign 1)
[2] = S3 Table sheet CD28-2 (panning campaign 2)

Compound	S/N (CD28; [1])	ELISA (CD28; [1])	S/N (VEGF)	ELISA (VEGF)	also measured
PRECDEDNIWIIANSSEECERLCRKLGVTNCRVHCG [CD28-1 clone 9, phage clone, 5JI4 library, CD28-1 panning]	1.511	0.213	–	–	–
RANAFWVVLVPDGGSSEECERLCRKLGVTNCRVHCG [CD28-1 clone 4, phage clone, 5JI4 library, CD28-1 panning]	2.932	0.4	–	–	–
PYECWRGQYFIIYKSSEECERLCRKLGVTNCRVHCG [CD28-1 clone 11, phage clone, 5JI4 library, CD28-1 panning]	2.209	0.201	–	–	–
PCESQSMQHFIIYNSSEECERLCRKLGVTNCRVHCG [CD28-1 clone 1, phage clone, 5JI4 library, CD28-1 panning]	4.839	0.542	–	–	–
PWNANVNGETYTVSSSEECERLCSAGLVNSCRVHCG [CD28-2 clone 1, phage clone, 5JI4 library, CD28-2 panning]	–	–	–	–	S/N (CD28; [2]): 7.9375; ELISA (CD28; [2]): 0.508
PCECDVNGETYTVSSSEECERPCSWNEAFSCRVHCG [CD28-1 clone 15, phage clone, 5JI4 library, CD28-1 panning]	2.576	0.219	–	–	–
PCECDVNGETYTVSSSEECGRLCMTDWVTSCRVHCG [CRD7 clone 8, phage clone, 5JI4 library, CRD7 panning]	–	–	–	–	S/N (CRD7): 5.905; ELISA (CRD7): 0.372
PCECPIRPYGVPVKSSEECERLCRKLGVTNCRVHCG [CRD7 clone 2, phage clone, 5JI4 library, CRD7 panning]	–	–	–	–	S/N (CRD7): 4.654; ELISA (CRD7): 0.377
PCECPSSVYWYFISSSEECERLCRKLGVTNCRVHCG [CRD7 clone 6, phage clone, 5JI4 library, CRD7 panning]	–	–	–	–	S/N (CRD7): 3.75; ELISA (CRD7): 0.225
RANATEWVPWIIYQSSEECERLCRKLGVTNCRVHCG [CD28-1 clone 2, phage clone, 5JI4 library, CD28-1 panning]	5.637	0.5	–	–	–
PCECDVNGETYTVSSSEECGRLCMQPWAHTCRVHCG [CRD7 clone 9, phage clone, 5JI4 library, CRD7 panning]	–	–	–	–	S/N (CRD7): 4.522; ELISA (CRD7): 0.312
PCECDVNGETYTVSSSEGCERLCSWDQGKWCRVHCG [CD28-1 clone 13, phage clone, 5JI4 library, CD28-1 panning]	2.33	0.247	–	–	–
PCEYQTWRVVIPDASSEECERLCRKLGVTNCRVHCG [CD28-1 clone 3, phage clone, 5JI4 library, CD28-1 panning]	4.407	0.4	–	–	–
CSCC[C@@H]1NC(=O)[C@@H]2CSSC[C@H](NC(=O)[C@H]([C@@H](C)O)NC(=O)[C@H]([C@@H](C)O)NC(=O)[C@H](C)NC(=O)[C@H](Cc3c[nH]c4ccccc34)NC(=O)[C@H](CC(=O)O)NC(=O)[C@H](CC(N)=O)NC1=O)C(=O)N[C@@H](CCCNC(=N)N)C(=O)N[C@@H](C(C)C)C(=O)N[C@@H](Cc1c[nH]cn1)C(=O)N[C@H](C(=O)NCC(=O)O)CSSC[C@H](NC(=O)[C@@H]1CCCN1)C(=O)N[C@@H](CCC(=O)O)C(=O)N[C@H]1CSSC[C@H](NC(=O)[C@H](CCC(=O)O)NC(=O)[C@H](CCC(=O)O)NC(=O)[C@H](CO)NC(=O)[C@H](CO)NC(=O)[C@H](CO)NC(=O)[C@H](C(C)C)NC(=O)[C@H]([C@@H](C)O)NC(=O)[C@H](Cc3ccc(O)cc3)NC(=O)[C@H]([C@@H](C)O)NC(=O)[C@H](CCC(=O)O)NC(=O)CNC(=O)[C@H](CC(N)=O)NC(=O)[C@H](C(C)C)NC(=O)[C@H](CC(=O)O)NC1=O)C(=O)NCC(=O)N[C@@H](CCCNC(=N)N)C(=O)N[C@@H](CC(C)C)C(=O)N2 [5ji4-CRD7-3] (H-PCECDVNGETYTVSSSEECGRLCMNDWATTCRVHCG-OH; disulfide 2-35, 4-19, 23-31)	–	–	–	–	ELISA signal (CRD7; phage spot ELISA of the clone, positive hit: signal > 0.3 and signal/noise > 2): 0.65; ELISA s/n (CRD7; phage spot ELISA signal/noise ratio): 9.52
PCESIQDVWIIHDSSEECERLCRKLGVTNCRVHCG [CD28-1 clone 6, phage clone, 5JI4 library, CD28-1 panning]	2.28	0.244	–	–	–
PCECIWANYVGYPFSSEECERLCRKLGVTNCRVHCG [CRD7 clone 3, phage clone, 5JI4 library, CRD7 panning]	–	–	–	–	S/N (CRD7): 2.388; ELISA (CRD7): 0.289
PCECQENTTFIIYSSSEECERLCRKLGVTNCRVHCG [CD28-1 clone 12, phage clone, 5JI4 library, CD28-1 panning]	1.979	0.192	–	–	–
PCECLMYRVXVGHSSSEACERLCRKLGVTNCRVHCG [VEGF clone 3, phage clone, 5JI4 library, VEGF panning]	–	–	42.6	4.34	–

Compound	S/N (CD28; [1])	ELISA (CD28; [1])	S/N (VEGF)	ELISA (VEGF)	also measured
PCECNYIPWIWIPQSSEECERLCRKLGVTNCRVHCG [CRD7 clone 5, phage clone, 5JI4 library, CRD7 panning]	–	–	–	–	S/N (CRD7): 3.588; ELISA (CRD7): 0.244
PCECFILGMAVGQSSSEECERLCRKLGVTNCRVHCG [VEGF clone 23, phage clone, 5JI4 library, VEGF panning]	–	–	29.8545	3.284	–
PCEFARQNVFIVHSSSEECERLCRTLGVTNCRVHCG [CD28-1 clone 8, phage clone, 5JI4 library, CD28-1 panning]	1.6194	0.217	–	–	–
PCECYLPKVMVGFSSSEECERLCRNLGVTNCRVHCG [VEGF clone 10, phage clone, 5JI4 library, VEGF panning]	–	–	12.4652	3.939	–
PCECIILNVVVGESSSEECERLCRKLGVTNCRVHCG [VEGF clone 4, phage clone, 5JI4 library, VEGF panning]	–	–	2.9	4.32	–
PCECYFETTHVGFASSEECERLCRKLGVTNCRVHCG [VEGF clone 18, phage clone, 5JI4 library, VEGF panning]	–	–	10.4498	3.438	–
PCECYIYNTGAGWGSSEECARLCRKLGVTNCRVHCG [VEGF clone 15, phage clone, 5JI4 library, VEGF panning]	–	–	30.6033	3.703	–
PANAVIRTWIIFASSEECERLCRKLGVTNCRVHCG [CD28-1 clone 5, phage clone, 5JI4 library, CD28-1 panning]	3.189	0.3	–	–	–
PCECWFYDALVGWTSSEECERLCRKLGVTNCRVHCG [VEGF clone 7, phage clone, 5JI4 library, VEGF panning]	–	–	41.3	4.13	–
PCECDHMQYFILYESSEECERLCRKLGVTNCRVHCG [CD28-1 clone 7, phage clone, 5JI4 library, CD28-1 panning]	2.516	0.234	–	–	–
PCECDVNGETYTVSSSEECGRLCMNDWATTCRVHCG [CRD7 clone 7, phage clone, 5JI4 library, CRD7 panning]	–	–	–	–	S/N (CRD7): 14.5714; ELISA (CRD7): 0.918
PCECMFHGVPVGFSSSEECERLCRKLGVTNCRVHCG [VEGF clone 8, phage clone, 5JI4 library, VEGF panning]	–	–	37.2	4.06	–
LECSHLQMFVIYNSSEECERLCRKLGVTSCRVHCG [CD28-1 clone 10, phage clone, 5JI4 library, CD28-1 panning]	2.405	0.202	–	–	–
PCECFFNAVKVGWSSSEECERLCRKLGVTNCRVHCG [VEGF clone 13, phage clone, 5JI4 library, VEGF panning]	–	–	35.8857	3.768	–
PCECYFYDIVVGFSSSEECERLCRKLGVTNCRVHCG [VEGF clone 1, phage clone, 5JI4 library, VEGF panning]	–	–	58.3	6.00	–
PCECHFXGVHVGRSSSEECERLCRKLGVTNCRVHCG [VEGF clone 12, phage clone, 5JI4 library, VEGF panning]	–	–	15.0395	3.805	–
PCECDVNGETYTVSSSEGCERLCSWDTRRMCRVHCG [CD28-1 clone 14, phage clone, 5JI4 library, CD28-1 panning]	2.852	0.231	–	–	–
PCECYFQGVNVGESSSEECERLCRKLGVTNCRVHCG [VEGF clone 16, phage clone, 5JI4 library, VEGF panning]	–	–	40.618	3.615	–
